Source: ChEMBL document CHEMBL4680271, “COVID-19: Drug Targets and Potential Treatments” (J Med Chem, 2020)

How the values were obtained:
[1] = molecular target: Procathepsin L (Homo sapiens) (UniProt P07711); assay: Inhibition of Cathepsin L in HEK293 cells harboring human ACE2 assessed as reduction in SARS-CoV-2 S pseudovirions entry into host cell pretreated for 1 hr followed by viral infection and measured after overnight incubation by luciferase method; format: cell-based; conditions: concentration not given here
[2] = system: SARS-CoV-2; assay: Antiviral activity against nCoV-2019 BetaCoV/Wuhan/WIV04/2019 infected in African green monkey VeroE6 cells assessed as reduction in viral yield preincubated for 1 hr followed by viral infection and further replacement of fresh medium containing compound and measured at 48 hrs post infection by qRT-PCR method; format: functional, organism-based; conditions: Severe acute respiratory syndrome coronavirus 2, BetaCoV/Wuhan/WIV04/2019, Vero C1008

Sequence of Procathepsin L (Homo sapiens) (P07711 114-333 limits assumed): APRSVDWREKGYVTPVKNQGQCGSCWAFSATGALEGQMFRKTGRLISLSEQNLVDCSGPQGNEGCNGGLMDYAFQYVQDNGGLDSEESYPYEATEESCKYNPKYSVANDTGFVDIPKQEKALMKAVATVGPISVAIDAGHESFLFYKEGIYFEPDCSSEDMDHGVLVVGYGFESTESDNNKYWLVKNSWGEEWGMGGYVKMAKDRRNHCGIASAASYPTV

Structure (SMILES) | inhibition [1] | EC50 [2]
CCc1ccccc1NC(=O)CSC(=O)NNC(=O)[C@H](Cc1c[nH]c2ccccc12)NC(=O)OC(C)(C)C | > 76% | 
Nc1nc2c(ncn2CCC(CO)CO)c(=O)[nH]1 [PENCICLOVIR] |  | 96 µM
